{"source": "paper PMC5992652", "about": "“Insight into the functional roles of Glu175 in the hyperthermostable xylanase XYL10C-ΔN through structural analysis and site-saturation mutagenesis” (Biotechnology for Biofuels, 2018)", "key": {"XYL10C-ΔN": {"biological_target": "T1, XYL10C-ΔN (Bispora sp. MEY-1, UniProt D0QF43)", "T1 construct": "18-residue signal peptide and the next 66 N-terminal residues removed; pPIC9, Pichia pastoris GS115; deglycosylated with Endo Hf; two monomers in asymmetric unit", "assay": "HPAEC of hydrolysis products", "type": "biochemical", "conditions": "pH 4.5, 70 °C, 16 h, Na2HPO4-citric acid; products mainly xylose and xylobiose"}, "XYL10C": {"biological_target": "T2, XYL10C (Bispora sp. MEY-1, UniProt D0QF43)", "T2 construct": "18-residue signal peptide", "T2 sequence (D0QF43 19-424)": "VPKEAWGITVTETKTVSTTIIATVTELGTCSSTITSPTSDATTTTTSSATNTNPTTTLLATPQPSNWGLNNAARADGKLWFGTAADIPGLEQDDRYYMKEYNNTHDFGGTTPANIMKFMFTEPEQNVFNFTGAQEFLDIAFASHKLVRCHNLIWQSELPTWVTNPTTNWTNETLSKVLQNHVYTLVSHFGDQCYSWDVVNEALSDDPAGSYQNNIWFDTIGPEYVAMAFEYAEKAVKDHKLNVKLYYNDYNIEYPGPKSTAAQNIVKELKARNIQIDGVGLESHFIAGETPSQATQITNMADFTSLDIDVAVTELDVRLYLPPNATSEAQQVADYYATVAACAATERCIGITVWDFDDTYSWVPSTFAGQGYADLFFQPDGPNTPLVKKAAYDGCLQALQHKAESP", "assay": "HPAEC of hydrolysis products", "type": "biochemical", "conditions": "pH 4.5, 70 °C, 16 h, Na2HPO4-citric acid; products mainly xylose and xylobiose"}}}
{"smiles": "OC1OC[C@@H](O[C@@H]2OC[C@@H](O[C@@H]3OC[C@@H](O)[C@H](O)[C@H]3O)[C@H](O)[C@H]2O)[C@H](O)[C@H]1O", "note": "(stereo partly shown) [X3, xylotriose]", "values": [{"measurement": "HPAEC of hydrolysis products", "setting": "XYL10C-ΔN", "result": "employed an endo-mode of action to cleave xylotriose, xylotetraose, xylopentaose, xylohexaose"}, {"measurement": "HPAEC of hydrolysis products", "setting": "XYL10C", "result": "employed an endo-mode of action to cleave xylotriose, xylotetraose, xylopentaose, xylohexaose"}]}
{"smiles": "OC1OC[C@@H](O[C@@H]2OC[C@@H](O[C@@H]3OC[C@@H](O[C@@H]4OC[C@@H](O[C@@H]5OC[C@@H](O[C@@H]6OC[C@@H](O)[C@H](O)[C@H]6O)[C@H](O)[C@H]5O)[C@H](O)[C@H]4O)[C@H](O)[C@H]3O)[C@H](O)[C@H]2O)[C@H](O)[C@H]1O", "note": "(stereo partly shown) [X6, xylohexaose]", "values": [{"measurement": "HPAEC of hydrolysis products", "setting": "XYL10C-ΔN", "result": "employed an endo-mode of action to cleave xylotriose, xylotetraose, xylopentaose, xylohexaose"}, {"measurement": "HPAEC of hydrolysis products", "setting": "XYL10C", "result": "employed an endo-mode of action to cleave xylotriose, xylotetraose, xylopentaose, xylohexaose"}]}
